Results on 3 compounds are retold here after article PMC4397963, “Phospho-Tyrosine(s) vs. Phosphatidylinositol Binding in Shc Mediated Integrin Signaling” (American journal of molecular biology, 2015).

Experiment [1] has as its target T1, Shc PTB domain (17 – 207) (Homo sapiens, UniProt P29353).
T1 construct: The Shc PTB domain (17 – 207) containing the pET15b vector was transformed into a Rosetta (DE3) cell line; His-tag (N); made in house; host or cells: E. coli Rosetta (DE3), pET15b
T1 sequence (P29353 17-207 isoform P29353-2): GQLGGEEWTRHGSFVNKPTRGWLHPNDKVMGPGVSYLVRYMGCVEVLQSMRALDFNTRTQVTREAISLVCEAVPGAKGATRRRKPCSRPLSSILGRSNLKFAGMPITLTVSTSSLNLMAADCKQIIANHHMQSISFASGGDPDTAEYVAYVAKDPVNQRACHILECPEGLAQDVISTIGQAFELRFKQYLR
The experiment can be described thus: ITC binding to Shc PTB domain. The settings on record: for thermodynamic character of binding (heat sign, driving force) / Kd / ΔG / ΔH / −TΔS: ITC, 25°C; for Kd / ΔG / ΔH / −TΔS: PtdIns binding to PTB domain; for Kd: 50 mM Tris pH 7.5, 100 mM NaCl, 5 mM β-mercaptoethanol, "independent" model, dihexanoyl- or dioctonoyl- PtdIns, read-out: Kd; for ΔG / ΔH / −TΔS: pH 7.5. As to the method:
The Shc PTB domain (17 – 207) containing the pET15b vector was transformed into a Rosetta (DE3) cell line to pursue optimal expression levels. SH2 domain (380 – 473) was cloned into NdeI and XhoI sites in pET21b vector and then transformed into a BL21 (DE3) cell line. The vector of pET28a-full length Shc (1 – 473), generously provided by Dr. Ladbury (University of Texas MD Anderson Cancer Center, TX), was expressed in a BL21 (DE3) cell line as well. Typically, 10 ml overnight culture was used to inoculate 1 liter LB broth. Cells were grown at 37°C until OD600 reached 0.6. At this point the culture was cooled to room temperature and then the overnight overexpression was induced by 1 mM isopropyl-β-D-thiogalactopyranoside. Harvested cells were kept at −20°C for future purification or resuspended in lysis buffer supplemented with protease inhibitors. Cells were further lysed by french press and the cell debris was removed by centrifugation at 18,000 rpm at 4°C. […] The overexpression of the target protein and the purified protein were confirmed by SDS-PAGE and the bands of the expected mass were observed. The determination of protein concentration by UV measurement was consistent with Bradford assay.
Calorimetric measurements of a full length Shc, PTB domain, and SH2 domain to β3 phosphopeptides or PtdIns were performed on a low volume Nano ITC (TA Instruments). All experiments were carried out in a buffer of 50 mM Tris, pH 7.5, 100 mM NaCl, 5 mM β-mercaptoethanol (unless described otherwise) at 12°C or 25°C with a stirring speed of 250 rpm to minimize the precipitation of the protein. 300 second time intervals were set between injections. The concentration of protein samples was determined by UV measurements. The titrants (β3 phosphopeptides or PtdIns) were prepared in the same buffer by the dilution of higher concentration stocks. The concentrations of the protein ranged from 30 μM to 150 μM. The concentration of protein was examined after each ITC experiment by UV to ensure the stability of proteins under the test condition. The analysis of the data was done with Nano Analyze Software (TA Instruments) suite using an “independent” model.

Experiment [2] concerns apo Shc PTB domain. The experiment is described as follows: 15N-HSQC NMR titration of apo Shc PTB domain. It is filed as binding. Particulars: 15N-labelled apo PTB 100 – 200 μM, 50 mM Tris pH 7.5, 100 mM NaCl, 35°C; lipid to protein up to 15 to 1 (Ins(1,4,5)P3), 5 to 1 (PtdIns(4,5)P2). As to the method: ^15N-labelled recombinant proteins were overexpressed in M9 medium supplemented with ^15NH4Cl as the sole nitrogen source. The same purification procedures as described above were followed. NMR samples of 100 – 200 μM were prepared in a buffer of 50 mM Tris, pH 7.5, 100 mM NaCl, 5 mM β-mercaptoethanol, 7% D2O, 1 mM 4,4-dimethyl-4-silapentane-1-sulfonic acid as the internal standard. ^15N-HSQC titration experiments were performed on a Varian/Agilent Inova 600 MHz spectrometer equipped with inverse-triple resonance cryo-probe at 35°C. All spectra were processed with NMRPipe and analyzed in CCPNmr Analysis software suite.
To find out the molecular details of these weak Shc-PtdIns interactions, we next employed NMR and performed ^15N-HSQC chemical shifts mapping experiments which are especially useful to define weak binding. […] Chemical shift perturbations, associated with the probes binding, were monitored. Overall, the observed shifts in Shc PTB resonance frequencies were small. However, they were concentration dependent, reproducible, and similar among the two PtdIns tested. […] The close-ups of 15N-HSQC spectra of PTB in the presence of PtdIns(4,5)P2, exemplifying the most shifted resonances, are shown in Figure 2. […] The first one, represented by the residues Q^148, S^149 and A^168, overlaps with the classical phosphotyrosine binding pocket of the protein-peptide binary complex. However, the canonical PTB fold cannot be formed without the stabilizing hydrophobic residue (pY-5) of the target peptide. Thus, in apo PTB domain Ins(1,4,5)P3 could only establish intermediate dynamic contacts with the amine functional groups of R^67 or Q^148 side chains. The second binding site, including the residues L^63, Q^76 and S^107, is formed at the interface of the second helix, the loop connecting the first beta strand with the second helix and the beginning of the second beta strand. This second PtdIns binding site is distinct from the second novel phosphotyrosine binding site we previously described for Shc PTB-bi-β3 complex, although it includes several overlapping residues. […]

Experiment [3] has as its target apo PTB domain of Shc. The settings on record: unilamellar liposomes centrifugation assay; ref [15]; read-out: binding affinity, apo PTB domain; cited from earlier work.
Experiment [4] has as its target PTB domain complexed with TrkA peptide. Particulars: roughly estimated; ref [15]; cited from earlier work.
The subject of experiment [5] is Shc PTB domain. Particulars: ref [15]; cited from earlier work. From the text:
Since their discovery about two decades ago, PTB domains have been identified and structurally characterized within numerous multi-domain proteins. The ways they interact with their targets are strikingly versatile. The phosphorylated tyrosine is not always required for the high affinity interactions, and, in some cases, the binding motif might not even contain the tyrosine residue at all. PTB domains in general are also famous for the significant variance in their ligand binding affinities, ranging from 0.1 to 100 μM [17].

The target in experiment [6] is TrkA phosphopeptide (Homo sapiens) (UniProt P04629). The experiment can be described thus: SPR. The settings on record: cited from earlier work.
Sequence of TrkA phosphopeptide (Homo sapiens) (P04629 33-796): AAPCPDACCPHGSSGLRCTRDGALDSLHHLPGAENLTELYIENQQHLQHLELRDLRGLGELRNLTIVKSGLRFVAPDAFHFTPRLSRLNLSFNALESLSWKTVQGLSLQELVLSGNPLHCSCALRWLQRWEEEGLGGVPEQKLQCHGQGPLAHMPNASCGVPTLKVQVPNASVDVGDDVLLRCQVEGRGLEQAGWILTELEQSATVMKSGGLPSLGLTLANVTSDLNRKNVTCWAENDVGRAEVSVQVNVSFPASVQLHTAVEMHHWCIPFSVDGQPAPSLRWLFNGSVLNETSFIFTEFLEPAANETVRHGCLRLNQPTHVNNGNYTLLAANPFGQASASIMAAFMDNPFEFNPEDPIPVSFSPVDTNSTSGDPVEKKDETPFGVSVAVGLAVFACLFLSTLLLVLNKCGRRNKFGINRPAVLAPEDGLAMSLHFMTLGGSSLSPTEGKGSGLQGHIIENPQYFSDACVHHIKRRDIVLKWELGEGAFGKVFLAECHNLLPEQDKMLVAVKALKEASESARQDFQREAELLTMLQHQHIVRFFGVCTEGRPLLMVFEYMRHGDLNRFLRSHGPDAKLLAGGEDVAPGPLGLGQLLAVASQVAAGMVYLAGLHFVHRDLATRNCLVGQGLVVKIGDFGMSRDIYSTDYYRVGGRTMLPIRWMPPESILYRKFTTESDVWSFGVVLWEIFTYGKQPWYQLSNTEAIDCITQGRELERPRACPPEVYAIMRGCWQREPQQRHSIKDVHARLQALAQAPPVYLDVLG
Experiment [7] has the same target. The experiment is described as follows: ITC. Particulars: cited from earlier work.

“Also recorded” adds a separate entry of the source.

Sequence of Shc PTB (P29353 156-339): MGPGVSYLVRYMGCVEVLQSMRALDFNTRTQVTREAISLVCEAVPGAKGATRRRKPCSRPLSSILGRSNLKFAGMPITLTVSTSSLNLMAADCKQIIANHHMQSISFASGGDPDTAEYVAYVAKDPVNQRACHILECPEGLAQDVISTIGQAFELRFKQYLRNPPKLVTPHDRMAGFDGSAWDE

Turning to `CCCCCCCCCCCCCCCC(=O)OC[C@H](COP(=O)(O)O[C@H]1[C@H](O)[C@@H](O)[C@H](OP(=O)(O)O)[C@@H](OP(=O)(O)O)[C@H]1O)OC(=O)CCCCCCCCCCCCCCC` [PtdIns(4,5)P2, Phosphatidylinositol-4,5-diphosphate], the “thermodynamic character of binding (heat sign, driving force)” value in experiment [1] (PTB domain) was “endothermic interactions at 25 °C that are driven predominantly by entropy”. Besides, in experiment [1], the Kd was 125 µM, the ΔG was -5.323 kcal/mol, the ΔH worked out at 0.464 kcal/mol and the “−TΔS” value is -5.786 kcal/mol. Moreover, in experiment [2], the “15N-HSQC chemical shift perturbations” value is given as “small; also recorded: more pronounced; also recorded: three major binding regions”. Further, the Kd in experiment [3] was 140 µM. For the same compound, the Kd in experiment [4] is around 450 µM. Also, in experiment [5], the lipid specificity result is given as “higher specificities”.

Consider “Phosphatidylinositol-4-phosphate [PtdIns(4)P1]”, for which the “binding affinity relative to that reported before” value in experiment [1] (PTB domain, ITC 25°C vs. centrifugation assay of ref 15) is given as “about two times weaker”. In experiment [1] (PTB domain), the “thermodynamic character of binding (heat sign, driving force)” value is “endothermic interactions at 25 °C that are driven predominantly by entropy”. Further, in experiment [1], the Kd was 95 µM, the ΔG is -5.485 kcal/mol, the ΔH is 0.361 kcal/mol and the “−TΔS” value was -5.846 kcal/mol. The “15N-HSQC chemical shift perturbations” value in experiment [2] is “small”. Also, the Kd in experiment [3] is 52 µM. In experiment [4], the Kd was around 450 µM. In experiment [5], the lipid specificity result was “higher specificities”.

With Shc PTB (from UniProt P29353), the Kd in experiment [6] was 0.053 µM; in experiment [7], 0.19 µM.
